Reference: patent US20130345218A1 (Vertex Pharmaceuticals Incorporated, priority 2010, published 2013)
Where two headings read alike, the source gives them in different places.

Tests used:
[1] = tested on: influenza A virus (A/PR/8/34); test: microbe, parasite or virus in culture; format: cell-based; details: mean IC50 (mean all), MDCK cells, A/PR/8/34, 72 hours, read-out: Flu, MDCK IC50
[2] = tested on: influenza A virus (A/PR/8/34) minus-strand viral RNA; test: microbe, parasite or virus in culture; format: cell-based; details: mean EC50 (mean all), viral RNA by bDNA, read-out: bDNA EC50
[3] = Influenza A virus, PR/8, MDCK, 72 h

Row | Compound | IC50 [1] [µM] | EC50 [2] [µM] | IC50 [1, 3] [µM] | EC50 ([2]; Influenza A virus, PR/8) [µM]
1 | 3-(2-(5-fluoro-1H-pyrrolo[2,3-b]pyridin-3-yl)pyridin-4-ylamino)bicyclo[2.2.2]octane-2-carboxylic acid [Compound I-49] | < 3.3 | < 3.3 | – | –
2 | O=C(O)[C@H]1C2CCC(CC2)[C@@H]1Nc1cncc(-c2c[nH]c3ncc(F)cc23)n1 (mixture of isomers) [Compound I-38] | – | – | < 3.3 | < 3.3
3 | O=C(O)[C@H]1C2CCC(CC2)[C@@H]1Nc1ncc(F)c(-c2c[nH]c3ncc(F)cc23)n1 (racemic) [Compound I-29, (+/−) trans-3-((5-fluoro-4-(5-fluoro-1H-pyrrolo[2,3-b]pyridin-3-yl)pyrimidin-2-yl)amino)bicyclo[2.2.2]octane-2-carboxylic acid] | – | – | < 3.3 | < 3.3
4 | N#Cc1cc(F)c(N[C@H]2C3CCC(CC3)[C@@H]2C(=O)O)nc1-c1c[nH]c2ncc(F)cc12 (racemic) [Compound I-30] | – | – | < 3.3 | < 3.3
5 | O=C(O)[C@H]1C2CCC(CC2)[C@@H]1Nc1nc(-c2c[nH]c3ncc(F)cc23)ccc1F (racemic) [Compound I-35, (+/−) 3-(3-fluoro-6-(5-fluoro-1H-pyrrolo[2,3-b]pyridin-3-yl)pyridin-2-ylamino)bicyclo[2.2.2]octane-2-carboxylic acid] | – | – | < 3.3 | < 3.3
6 | O=C(O)[C@H]1C2CCC(CC2)[C@@H]1Nc1cc(C(F)(F)F)cc(-c2c[nH]c3ncc(F)cc23)n1 (racemic) [Compound I-37, (+/−)-trans-3-((6-(5-fluoro-1H-pyrrolo[2,3-b]pyridin-3-yl)-4-(trifluoro-methyl)pyridin-2-yl)amino)bicyclo[2.2.2]octane-2-carboxylic acid] | – | – | < 3.3 | < 3.3
7 | N#Cc1cnc(N[C@@H]2C3CCC(CC3)[C@H]2C(=O)O)nc1-c1c[nH]c2ncc(C(F)(F)F)cc12 (racemic) [Compound I-39, (+/−)-trans 3-((5-cyano-4-(5-(trifluoromethyl)-1H-pyrrolo[2,3-b]pyridin-3-yl)pyrimidin-2-yl)amino)bicyclo[2.2.2]octane-2-carboxylic acid] | – | – | < 3.3 | < 3.3
8 | O=C(O)C1C2CCC(CC2)C1Nc1cnnc(-c2c[nH]c3ncc(F)cc23)n1 (racemic) [Compound I-42, (+/−)-3-[[3-(5-fluoro-1H-pyrrolo[2,3-b]pyridin-3-yl)-1,2,4-triazin-5-yl]amino]bicyclo[2.2.2]octane-2-carboxylic acid] | – | – | < 3.3 | < 3.3
9 | O=C(O)[C@H]1C2CCC(CC2)[C@@H]1Nc1nc(Cl)nc(-c2c[nH]c3ncc(F)cc23)n1 (racemic) [Compound I-44, (+/−)-trans-3-(4-chloro-6-(5-fluoro-1H-pyrrolo[2,3-b]pyridin-3-yl)-1,3,5-triazin-2-ylamino)bicyclo[2.2.2]octane-2-carboxylic acid] | – | – | < 3.3 | < 3.3
10 | O=C(O)[C@H]1C2CCC(CC2)[C@@H]1Nc1cc(-c2c[nH]c3ncc(F)cc23)ncc1F (racemic) [Compound I-50, (+/−)-(2,3)-trans-3-((5-fluoro-2-(5-fluoro-1H-pyrrolo[2,3-b]pyridin-3-yl)pyridin-4-yl)amino)bicyclo[2.2.2]octane-2-carboxylic acid] | – | – | < 3.3 | < 3.3
11 | N#Cc1cc(F)c(NC2C3CCC(CC3)C2C(=O)O)cc1-c1c[nH]c2ncc(F)cc12 (racemic) [Compound I-51, (+/−)-3-((4-cyano-2-fluoro-5-(5-fluoro-1H-pyrrolo[2,3-b]pyridin-3-yl)phenyl)amino)bicyclo[2.2.2]octane-2-carboxylic acid] | – | – | < 3.3 | < 3.3
12 | N#Cc1cnc(N[C@@H]2CCC[C@H](NC(=O)C3CC3)C2)nc1-c1c[nH]c2ncc(C(F)(F)F)cc12 (stereo in doubt) [Compound I-10, N-((1S,3R)-3-((5-cyano-4-(5-(trifluoromethyl)-1H-pyrrolo[2,3-b]pyridin-3-yl)pyrimidin-2-yl)amino)cyclohexyl)cyclopropanecarboxamide] | – | – | < 3.3 | < 3.3
13 | O=C(N[C@@H]1CCC[C@H](Nc2nc(-c3c[nH]c4ncc(F)cc34)c(C(F)(F)F)cc2F)C1)N1CCCC1 (stereo in doubt) [Compound I-20, N-((1R,3S)-3-((3-fluoro-6-(5-fluoro-1H-pyrrolo[2,3-b]pyridin-3-yl)-5-(trifluoromethyl)-pyridin-2-yl)amino)cyclohexyl)pyrrolidine-1-carboxamide] | – | – | < 3.3 | < 3.3
14 | N#Cc1cnc(N[C@H]2CCCC[C@@H]2C(=O)O)nc1-c1c[nH]c2ncc(Cl)cc12 [Compound I-1, (1S,2S)-2-((4-(5-chloro-1H-pyrrolo[2,3-b]pyridin-3-yl)-5-cyanopyrimidine-2-yl)amino)-cyclohexanecarboxylic acid] | – | – | < 3.3 | < 3.3
15 | N#Cc1cnc(N[C@H]2CCC[C@@H](C(=O)O)C2)nc1-c1c[nH]c2ncc(Cl)cc12 [Compound I-3, (1R,3S)-3-((4-(5-chloro-1H-pyrrolo[2,3-b]pyridin-3-yl)-5-cyanopyrimidine-2-yl)amino)-cyclohexanecarboxylic acid] | – | – | < 3.3 | < 3.3
16 | N#Cc1cnc(N[C@H]2CCC[C@@H](C(=O)O)C2)nc1-c1c[nH]c2ncc(C(F)(F)F)cc12 [Compound I-4, (1R,3S)-3-((5-cyano-4-(5-(trifluoromethyl)-1H-pyrrolo[2,3-b]pyridin-3-yl)pyrimidin-2-yl)amino)cyclohexanecarboxylic acid] | – | – | < 3.3 | < 3.3
17 | N#Cc1cnc(N[C@H]2CCC[C@@H](C(=O)O)C2)nc1-c1c[nH]c2ncccc12 [Compound I-5] | – | – | ≥ 3.3 | –
18 | CC1(C(=O)N[C@@H]2CCC[C@H](Nc3ncc(C#N)c(-c4c[nH]c5ncc(C(F)(F)F)cc45)n3)C2)CC1 [Compound I-6, N-((1R,3S)-3-((5-cyano-4-(5-(trifluoromethyl)-1H-pyrrolo[2,3-b]pyridin-3-yl)pyrimidin-2-yl)amino)cyclohexyl)-1-methylcyclopropanecarboxamide] | – | – | < 3.3 | < 3.3
19 | N#Cc1cnc(N[C@H]2CCCC[C@@H]2C(=O)O)nc1-c1c[nH]c2ncc(C(F)(F)F)cc12 [Compound I-7, (1S,2S)-2-((5-cyano-4-(5-(trifluoromethyl)-1H-pyrrolo[2,3-b]pyridin-3-yl)pyrimidin-2-yl)amino)cyclohexanecarboxylic acid] | – | – | < 3.3 | < 3.3
20 | CC[C@]1(C(=O)O)CCCC[C@@H]1Nc1ncc(C#N)c(-c2c[nH]c3ncc(C(F)(F)F)cc23)n1 [Compound I-8, (1S,2S)-2-((5-cyano-4-(5-(trifluoromethyl)-1H-pyrrolo[2,3-b]pyridin-3-yl)pyrimidin-2-yl)amino)-1-ethylcyclohexanecarboxylic acid] | – | – | < 3.3 | < 3.3
21 | COCC(=O)N[C@@H]1CCC[C@H](Nc2ncc(C#N)c(-c3c[nH]c4ncc(C(F)(F)F)cc34)n2)C1 [Compound I-9, N-((1R,3S)-3-((5-cyano-4-(5-(trifluoromethyl)-1H-pyrrolo[2,3-b]pyridin-3-yl)pyrimidin-2-yl)amino)cyclohexyl)-2-methoxyacetamide] | – | – | < 3.3 | < 3.3
22 | N#Cc1cc(F)c(N[C@H]2CCC[C@@H](NC(=O)N3CCOCC3)C2)nc1-c1c[nH]c2ncc(Cl)cc12 [Compound I-11, N-((1R,3S)-3-((6-(5-chloro-1H-pyrrolo[2,3-b]pyridin-3-yl)-5-cyano-3-fluoro-pyridin-2-yl)amino)cyclohexyl)morpholine-4-carboxamide] | – | – | < 3.3 | < 3.3
23 | N#Cc1cc(F)c(N[C@H]2CCC[C@@H](NC(=O)N3CCOCC3)C2)nc1-c1c[nH]c2ncc(F)cc12 [Compound I-12, N-((1R,3S)-3-((5-cyano-3-fluoro-6-(5-fluoro-1H-pyrrolo[2,3-b]pyridin-3-yl)pyridin-2-yl)amino)cyclohexyl)morpholine-4-carboxamide] | – | – | < 3.3 | < 3.3
24 | NC(=O)c1cc(F)c(N[C@H]2CCC[C@@H](NC(=O)N3CCOCC3)C2)nc1-c1c[nH]c2ncc(F)cc12 [Compound I-13, N-((1R,3S)-3-((5-carbamoyl-3-fluoro-6-(5-fluoro-1H-pyrrolo[2,3-b]pyridin-3-yl)pyridin-2-yl)amino)cyclohexyl)morpholine-4-carboxamide] | – | – | < 3.3 | < 3.3
25 | N#Cc1cc(F)c(N[C@H]2CCC[C@@H](NC(=O)N3CC[C@@H](F)C3)C2)nc1-c1c[nH]c2ncc(F)cc12 [Compound I-14, (R)—N-((1R,3S)-3-((5-cyano-3-fluoro-6-(5-fluoro-1H-pyrrolo[2,3-b]pyridin-3-yl)pyridin-2-yl)amino)cyclohexyl)-3-fluoropyrrolidine-1-carboxamide] | – | – | < 3.3 | < 3.3
26 | O=C(N[C@@H]1CCC[C@H](Nc2nc(-c3c[nH]c4ncc(F)cc34)c(F)cc2F)C1)N1CCCC1 [Compound I-15, N-((1R,3S)-3-((3,5-difluoro-6-(5-fluoro-1H-pyrrolo[2,3-b]pyridin-3-yl)pyridin-2-yl)amino)cyclohexyl)pyrrolidine-1-carboxamide] | – | – | < 3.3 | < 3.3
27 | C[C@@H]1CCN(C(=O)N[C@@H]2CCC[C@H](Nc3nc(-c4c[nH]c5ncc(F)cc45)c(F)cc3F)C2)C1 [Compound I-16, (R)—N-((1R,3S)-3-((3,5-difluoro-6-(5-fluoro-1H-pyrrolo[2,3-b]pyridin-3-yl)-pyridin-2-yl)amino)cyclohexyl)-3-methylpyrrolidine-1-carboxamide] | – | – | < 3.3 | < 3.3
28 | O=C(O)[C@@H]1C2CCC(CC2)[C@H]1Nc1nc(-c2c[nH]c3ncc(F)cc23)c(F)cc1F [Compound I-27] | – | < 3.3 | – | –
29 | (+/−)-(exo)-7-((3,5-difluoro-6-(5-fluoro-1H-pyrrolo[2,3-b]pyridin-3-yl)pyridin-2-yl)amino)bicyclo[3.2.2]nonane-6-carboxylic acid [Compound I-36] | – | < 3.3 | – | –
